A melting point compilation (Tetko et al.; mined from patent text by program, amines drawn as free bases though some values may be those of a salt)

Row | Compound | melting point [°C]
1 | CN(C(=O)OCc1ccccc1)c1ccc(OCC(=O)N[C@@H](CC(N)=O)C(=O)N[C@@H](Cc2ccccc2)[C@H](O)C(=O)N2CCC[C@H]2C(=O)NC(C)(C)C)cc1 | 98 to 100
2 | COc1ccc(C(C)(C)C)cc1C(N)=NO | 132 to 133
3 | COc1ccc(-n2nc(NC(=O)OC(C)(C)C)c3csc(N)c3c2=O)cc1 | 99 to 101
4 | CCc1nc2ccc(Cl)nc2n1Cc1ccc2oc(-c3ccccc3-c3nnn[nH]3)c(Br)c2c1 | 162 to 165
5 | CNC(=O)c1oc(C(C)(C)C)cc1NC(=O)Nc1ccc(C)cc1 | 190 to 193
6 | OC(c1ccccc1)(c1cc2ccccc2s1)C1CCN(CCc2ccccc2)CC1 (stereo not drawn) | 144 to 146
7 | CN1CCN(c2ccc(S(=O)(=O)Oc3ccccc3)c(Cl)c2[N+](=O)[O-])CC1 | 94 to 95
8 | CCOC(=O)C1(O)C(=O)Nc2c(OC)cc(CCNC(=O)C(F)(F)F)cc21 (stereo not drawn) | 115 to 117
9 | CCOC(=O)CN1CC2CCC(=O)N2C1=O (stereo not drawn) | 99 to 101
10 | CCc1cc(CCc2nc3ccccc3o2)c(=O)[nH]c1CO | 155 to 156
11 | COc1cc(-n2nc(C(F)(F)F)cc2-c2ccc(S(C)(=O)=O)cc2)ccc1Cl | 157 to 158
12 | CCC(C#N)=C1CCN(c2ccc(N3C[C@H](CNC(=O)C(Cl)(Cl)Cl)OC3=O)cc2F)CC1 | 150 to 152
13 | COC(=O)CCc1cc2cc(Cl)ccc2n1S(=O)(=O)c1ccc2nc(N)sc2c1 | 217 to 222
14 | CC(C)Cn1cnc2c1c1ccccc1n1nnnc21 | 208 to 212
15 | CCOC(=O)c1cccn2c(C#N)c(-c3ccccc3)nc12 | 87 to 89
16 | COC(=O)c1ncccc1N | 139 to 146
17 | O=C(c1ccc(F)cc1)C1CCN(C(=O)c2ccc([N+](=O)[O-])cc2)CC1 | 168 to 170
18 | N#Cc1c(N2CCc3ccccc3CC2)ncn(CCO)c1=O | 167 to 171
19 | CNCCCCn1c(-c2ccc(Br)cc2)csc1=Nc1ccccc1 | 56 to 57
20 | CCCOc1cc(C(=O)O)cc(N)c1C(=O)c1ccccc1 | 220 to 222
21 | O=C(O)CC1=CC2(Cc3ccc(Br)cc3)C(=O)N(c3cc(Cl)cc(Cl)c3)C(=O)N2C1 (stereo not drawn) | 102
22 | CC(C)(C)ON=C1CC(=NOC(C)(C)C)c2ccccc2-c2ccccc21 | 181 to 183
23 | N#Cc1cc(Br)cc(C(F)(F)F)n1 | 88.5
24 | COc1c(Br)c(O)c(C=O)c(OC)c1Br | 103 to 104
25 | Cc1cccc2nc(CSc3ncnc4[nH]cnc34)n(-c3ccccc3Cl)c(=O)c12 | 228 to 230

Row | Compound | melting point [°C]
26 | CNC(=O)ON=C1N=C(c2ccccc2)C(C)(C)S1 | 135 to 137
27 | CCCc1nc2c(N)nc3ccccc3c2n1CCOCCCCl | 131 to 132
28 | CC(C)(C)OC(=O)N[C@@H](Cc1ccc(-c2ccc(F)cc2)cc1)C(=O)OCc1ccccc1 | 103 to 104
29 | Cc1ccc(-n2nc(C(C)(C)C)cc2NC(=O)Nc2ccc(OCC(=O)N3CCOCC3)c3ccccc23)cc1 | 240 to 241
30 | OCCN1CCN(C2=Nc3cc(Br)ccc3Oc3cscc32)CC1 | 150 to 152
31 | CCCc1nn(C)c2c(=O)[nH]c(-c3cc(C(=O)CN4CCCCC4)ccc3OCC)nc12 | 149 to 151
32 | CC(C)n1nc(-c2ncc(N)nc2-c2ccccc2Br)ccc1=O | 189 to 191
33 | CC(=O)OCc1cccc(NC(=O)c2nnn(Cc3ccc(Cl)c(Cl)c3)c2C)c1 | > 70
34 | Cc1c(Cl)nnc(Cl)c1Cl | 67.5 to 70
35 | CCN1Cc2ccc(Cl)cc2-c2c(C(=O)N3CCOCC3)cc(-c3ccccc3)c(=O)n21 | 288 to 289
36 | COc1c(C)c(C)c(OC)c(C(CCCC(=O)O)c2ccccc2)c1C (stereo not drawn) | 142 to 143
37 | O=C(Cc1ccc2c(c1)OCO2)Nc1cc(C2CC2)n[nH]1 | 174 to 176
38 | O=c1cc2c(nn1Cc1ccc(Cl)cc1)-c1ccccc1S(=O)(=O)CC2 | 238 to 239
39 | CCCCCS(=O)(=O)NC(=O)/C=C/c1ccc(OCCOC(C)=O)cc1Oc1ncc(C(F)(F)F)cc1Cl | 141 to 144
40 | Cc1nc2c(-c3cccc(N4CCN(C)CC4)c3)cnn2c(N)c1-c1ccc(F)c(Cl)c1 | 224 to 226
41 | CC1(C)CCCC(N=[N+]=[N-])C(=O)N1 (stereo not drawn) | 98 to 100
42 | C=CCC1(O)CCC2C3CCC4=CC(=O)CCC4C3CCC21Cc1cccc(N(C)C)c1 (stereo not drawn) | 142
43 | CCC1=C(c2ccccc2)C(c2ccccc2)=C(CC)C1=C(C#N)C#N | 154 to 156
44 | CN1C(=O)C(C)(CCN2CCN(c3cccc4ccccc34)CC2)c2cc(F)ccc21 (stereo not drawn) | 144 to 146
45 | COc1cc(/C=C/c2ccc(C(C)C)cc2)cc(OC)c1OC | 74 to 75
46 | C=CCOC(=O)C(CCn1c(=O)c2c(ncn2C)n(C)c1=O)N(C)S(=O)(=O)c1ccc(Oc2ccccc2)cc1 (stereo not drawn) | 207 to 209
47 | CC(C)N(Cc1cnc(-c2ncn3c2CN(C)C(=O)c2cc(F)ccc2-3)o1)C(C)C | 176 to 178
48 | CC(=O)OC1(C(C)=O)CCC2C3CCC4=CC(=O)CCC4(C)C3CCC21C (stereo not drawn) | 243 to 245
49 | O=C(Nc1ccccc1)N1C(=S)C2(CCCCC2)NC12CCCCC2 | 143 to 144
50 | O=C(Cc1ccc(SC(F)(F)F)cc1)NCc1ccc2c(c1)CN(C1CCC(=O)NC1=O)C2=O (stereo not drawn) | 208 to 210

Row | Compound | melting point [°C]
51 | CCCn1cc(Cc2ccc(C(=O)O)cc2OC)c2cc(CCCC(=O)N(C)C)ccc21 | 117 to 118
52 | C[C@H](CN(C(=O)C1(C)C2CCC1CC2)c1ccccn1)N1CCN(c2cccc3[nH]ccc23)CC1 (stereo partly drawn) | 236 to 238
53 | N#CNC(=NC1CCN(Cc2ccccc2)CC1)N1Cc2ccccc2C1 | 191 to 192
54 | CNC(=O)C(O)C1=CC2(CCCC2)c2ccccc21 (stereo not drawn) | 136 to 138
55 | COC(=O)c1cc(-c2ccccc2)c(=O)n2c1-c1sccc1CN2C | 180 to 181
56 | CCCNC(=O)C(C)(C)Cc1ccc2c(c1)c(Cc1ccc(C(=O)O)cc1OC)cn2CCC | 78 to 90
57 | Cc1ccc(Nc2cc(C(=O)O)c(Nc3ccc(C)cc3)cc2C(=O)O)cc1 | 310
58 | CCOC(=O)C1(C(=O)OCC)CCC2(CC1)NCCc1cc(OC)ccc12 | 81 to 83
59 | COC(=O)C1(C(F)CCCCOc2ccc(Cl)cc2)CO1 (stereo not drawn) | 76 to 78
60 | CCn1nc(-c2nc(C(N)=O)c(N)nc2-c2ccccc2)ccc1=O | > 250
61 | Cc1nccn1-c1ccc(COc2cccc(C3(C(N)=O)CCOCC3)c2)cc1 | 183 to 186
62 | COc1ccc(C23CC(c4ccccc4)C(=O)N2CCN3)cc1 (stereo not drawn) | 150
63 | CCCCc1oc2ccccc2c1C(=O)N(Cc1ccccc1)Cc1ccc2c(Br)c(OCC#N)ccc2c1 | 105 to 110
64 | CCCN(CCC)c1ccc2nc3c4ccccc4c(=Nc4ccncc4)cc-3oc2c1 | 215 to 216
65 | COc1cc2c3c(n(CCCNS(=O)(=O)c4ccccc4)c(=O)c2cc1OC)-c1ccccc1C3=O | 249 to 250
66 | CCCCCCCCCCCCCCCCCCOc1ccc([N+](=O)[O-])cc1[N+](=O)[O-] | 63.5 to 64
67 | O=C(N=NC=C(Cl)Cl)c1ccccc1 | 50 to 51
68 | CCCc1nc2c(N)nc(C)c(C)c2n1CCCCS(N)(=O)=O | 167 to 169
69 | CC(C)(C)C(=O)Oc1ccc(C(=O)CBr)cc1OC(=O)C(C)(C)C | 64 to 66
70 | O=C(N[C@H]1CC[C@H](CCN2CCC(c3cccc4c3CCO4)CC2)CC1)c1ccnc2ccccc12 | 211
71 | Oc1ccc(-c2nc3cc(O)ccc3o2)c(Cl)c1 | 253 to 255
72 | CCCCCCNc1nc(Cl)nc2c(SC)ncnc12 | 80 to 82
73 | COC(C(=O)O)C(=O)Nc1cc(Cl)cc(Cl)c1 (stereo not drawn) | 142 to 145
74 | O=C(c1ccccc1)C1CNC(=S)C1 (stereo not drawn) | 110 to 112
75 | O=C1c2c(Cl)cccc2-n2cnc(-c3nnc(-c4ccccc4)o3)c2[C@@H]2CCCN12 | 221 to 222

Row | Compound | melting point [°C]
76 | O=c1cc(CO)oc2cc(O)ccc12 | 250 to 252
77 | Cc1nc(Nc2ccc(F)cc2)nc(O)c1C | 256
78 | CON1CCC2(CC1)C(OCc1ccccc1)=C(c1c(C)cc(C)cc1C)C(=O)N2C | 139 to 141
79 | CC(C(=O)O)c1ccc(-c2ccccc2)cc1 (stereo not drawn) | 144 to 145
80 | CCOC(=O)C=Cc1cc([N+](=O)[O-])c(F)cc1Cl | 86 to 88
81 | Nc1nc(Cl)cc(OCC(O)CO)n1 (stereo not drawn) | 175 to 177
82 | S=C1Nc2ccccc2N2CCN(c3ccccc3)CCN12 | 202 to 206
83 | Cn1c(CO)cc2cccc(F)c21 | 89 to 91
84 | CC(C)(C)OC(=O)ON1C(C)(C)CC(OC(=O)c2ccccc2)CC1(C)C | 109 to 111
85 | C[C@@H]1C(=O)C[C@H]2C[C@@H]1OO[C@@]2(C)/C=C\c1ccccc1 | 60
86 | CC(C)Oc1cc(N2CCC(C(F)(F)F)CC2=O)c(F)cc1Cl (stereo not drawn) | 98 to 102
87 | CNc1nc(Nc2ccc(Cl)c(Cl)c2)ncc1NC(=O)OC | 303 to 305
88 | Cc1nnc(-c2ccc3occ(-c4ccc(OCCS(C)(=O)=O)cc4)c3c2)o1 | 132 to 133
89 | CN(C)CCCOC(=O)c1cccc2c(-c3ccccc3)c([N+](=O)[O-])oc12 | 65.5 to 67.5
90 | CCC1Cn2c(ncc(C(=O)O)c2=O)-c2ccccc21 (stereo not drawn) | 167 to 169
91 | COc1cc(Cc2cnc(N)nc2N)cc2c1OC(C)(C)C=C2c1cccs1 | > 260
92 | CC(=O)Nc1ccc(-c2ccnc3c(C(=O)c4ccccc4)cnn23)cc1 | 229 to 231
93 | CS(=O)(=O)OCC(C#N)(c1ccc(Cl)cc1)c1ccccc1Cl (stereo not drawn) | 124 to 127
94 | ON=C(Cc1ccccc1)c1cccnc1 | 122 to 126
95 | CCCCCc1ncc(C(=O)OCC)c(NCc2ccc(-c3ccccc3-c3nnnn3C(c3ccccc3)(c3ccccc3)c3ccccc3)cc2)n1 | 107 to 108
96 | CC1CC(=O)c2c(C(=O)Nc3ccc(F)cc3)c[nH]c2C1 (stereo not drawn) | 262 to 264
97 | CCOC(=O)c1ccc(OCc2ccc3c(c2)C(C)(C)CCC3(C)C)cc1 | 109 to 111
98 | COc1cc2c(cc1OC)CC(NC(=O)C1CCCN1)CC2 (stereo not drawn) | 108 to 109
